System: K86415-001-R-J1-PDC complex spheroids, viability
Assay: Anticancer human tumor K86415-001-R-J1-PDC patient-derived lung adenocarcinoma cell line growth inhibition [RAS]
Conditions: for viability, T/C: stronger effect = lower value
Summary of the method: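 Multi-cell-type spheroids: tumor cells plus HUVEC endothelial cells and mesenchymal stem cells. RAS-pathway inhibitors were combined with targeted agents, each dosed in half-log steps down from clinical Cmax, or from 10 microM when Cmax was unknown.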

[1] = curve of first compound, second compound 0.000949 µM
[2] = curve of first compound, second compound 0.003 µM
[3] = curve of first compound, second compound 0.00949 µM
[4] = curve of first compound, second compound 0.03 µM
[5] = curve of first compound, second compound 0.0949 µM
[6] = curve of first compound, second compound 0.3 µM
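Also: spheroids exposed to agents for seven days before readout.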

Work on CC1(C)CCC(Nc2ncc(C(F)(F)F)c(-c3c[nH]c4c(P(C)(C)=O)c(C#N)ccc34)n2)CN1 (stereo unspecified) + CCn1c(-c2cc(N3CCN(C)CC3)cnc2C(C)OC)c2c3cc(ccc31)-c1csc(n1)CC(NC(=O)C1CC1C)C(=O)N1CCCC(N1)C(=O)OCC(C)(C)C2 yielded an IC50 [1] of 1.19 nM, an IC50 [2] of less than 0.949 nM and an IC50 [3] of less than 0.949 nM. The IC50 [4] was less than 0.949 nM, the IC50 [5] was less than 0.949 nM and the IC50 [6] was less than 0.949 nM. For the same molecule, the viability, T/C (second compound 0.000949 µM, first compound 0.000949 µM) was 57.1%, the viability, T/C (second compound 0.000949 µM, first compound 0.003 µM) was 45.9% and the viability, T/C (second compound 0.000949 µM, first compound 0.00949 µM) was 37.9%. It also gave a viability, T/C (second compound 0.000949 µM, first compound 0.03 µM) of 39.5%, a viability, T/C (second compound 0.000949 µM, first compound 0.0949 µM) of 42.2% and a viability, T/C (second compound 0.000949 µM, first compound 0.3 µM) of 39.5%. For the same molecule, the viability, T/C (second compound 0.003 µM, first compound 0.000949 µM) was 24.9%, the viability, T/C (second compound 0.003 µM, first compound 0.003 µM) was 18.3% and the viability, T/C (second compound 0.003 µM, first compound 0.00949 µM) was 20.9%. The viability, T/C (second compound 0.003 µM, first compound 0.03 µM) was 20.8%, the viability, T/C (second compound 0.003 µM, first compound 0.0949 µM) was 24.6% and the viability, T/C (second compound 0.003 µM, first compound 0.3 µM) was 23.6%. For the same molecule, the viability, T/C (second compound 0.00949 µM, first compound 0.000949 µM) was 10.8%, the viability, T/C (second compound 0.00949 µM, first compound 0.003 µM) was 10.4% and the viability, T/C (second compound 0.00949 µM, first compound 0.00949 µM) was 11.1%. It also gave a viability, T/C (second compound 0.00949 µM, first compound 0.03 µM) of 13.3%, a viability, T/C (second compound 0.00949 µM, first compound 0.0949 µM) of 12.4% and a viability, T/C (second compound 0.00949 µM, first compound 0.3 µM) of 14.3%. For the same molecule, the viability, T/C (second compound 0.03 µM, first compound 0.000949 µM) was 6.32%, the viability, T/C (second compound 0.03 µM, first compound 0.003 µM) was 7.15% and the viability, T/C (second compound 0.03 µM, first compound 0.00949 µM) was 6.95%. For the same molecule, the viability, T/C (second compound 0.03 µM, first compound 0.03 µM) was 7.05%, the viability, T/C (second compound 0.03 µM, first compound 0.0949 µM) was 6.99% and the viability, T/C (second compound 0.03 µM, first compound 0.3 µM) was 8.91%. It also gave a viability, T/C (second compound 0.0949 µM, first compound 0.000949 µM) of 5.16%, a viability, T/C (second compound 0.0949 µM, first compound 0.003 µM) of 5.23% and a viability, T/C (second compound 0.0949 µM, first compound 0.00949 µM) of 6.96%. For the same molecule, the viability, T/C (second compound 0.0949 µM, first compound 0.03 µM) was 5.02%, the viability, T/C (second compound 0.0949 µM, first compound 0.0949 µM) was 6.21% and the viability, T/C (second compound 0.0949 µM, first compound 0.3 µM) was 7.98%. For the same molecule, the viability, T/C (second compound 0.3 µM, first compound 0.000949 µM) was 3.6%, the viability, T/C (second compound 0.3 µM, first compound 0.003 µM) was 4.59% and the viability, T/C (second compound 0.3 µM, first compound 0.00949 µM) was 5.58%. For the same molecule, the viability, T/C (second compound 0.3 µM, first compound 0.03 µM) was 6.23%, the viability, T/C (second compound 0.3 µM, first compound 0.0949 µM) was 5.28% and the viability, T/C (second compound 0.3 µM, first compound 0.3 µM) was 6.87%.

With Nc1ccn(C2OC(CO)C(O)C2(F)F)c(=O)n1 (stereo unspecified) the viability, T/C (compound 0.00316 µM) was 106% [middle of 4 runs], the viability, T/C (compound 0.01 µM) was 97.5% [middle of 4 runs] and the viability, T/C (compound 0.0316 µM) was 78.7% [middle of 4 runs]. The viability, T/C (compound 0.1 µM) was 61.3% [middle of 4 runs], the viability, T/C (compound 0.316 µM) was 31.2% [middle of 4 runs] and the viability, T/C (compound 1 µM) was 22.3% [middle of 4 runs]. For the same molecule, the IC50 (curve of compound) was 136 nM [middle of 4 runs].

In the case of CCN1CCN(Cc2ccc(Nc3ncc(F)c(-c4cc(F)c5nc(C)n(C(C)C)c5c4)n3)nc2)CC1 + CCn1c(-c2cc(N3CCN(C)CC3)cnc2C(C)OC)c2c3cc(ccc31)-c1csc(n1)CC(NC(=O)C1CC1C)C(=O)N1CCCC(N1)C(=O)OCC(C)(C)C2, the IC50 [1] is reported as less than 3.16 nM, the IC50 [2] is reported as less than 3.16 nM and the IC50 [3] is reported as less than 3.16 nM. It also gave an IC50 [4] of less than 3.16 nM, an IC50 [5] of less than 3.16 nM and an IC50 [6] of less than 3.16 nM. It also gave a viability, T/C (second compound 0.000949 µM, first compound 0.00316 µM) of 47.9%, a viability, T/C (second compound 0.000949 µM, first compound 0.01 µM) of 40.1% and a viability, T/C (second compound 0.000949 µM, first compound 0.0316 µM) of 34.3%. It also gave a viability, T/C (second compound 0.000949 µM, first compound 0.1 µM) of 34.2%, a viability, T/C (second compound 0.000949 µM, first compound 0.316 µM) of 35.9% and a viability, T/C (second compound 0.000949 µM, first compound 1 µM) of 40.8%. The viability, T/C (second compound 0.003 µM, first compound 0.00316 µM) was 21.5%, the viability, T/C (second compound 0.003 µM, first compound 0.01 µM) was 17.4% and the viability, T/C (second compound 0.003 µM, first compound 0.0316 µM) was 17.5%. The viability, T/C (second compound 0.003 µM, first compound 0.1 µM) was 19.1%, the viability, T/C (second compound 0.003 µM, first compound 0.316 µM) was 26.6% and the viability, T/C (second compound 0.003 µM, first compound 1 µM) was 23.5%. It also gave a viability, T/C (second compound 0.00949 µM, first compound 0.00316 µM) of 12.5%, a viability, T/C (second compound 0.00949 µM, first compound 0.01 µM) of 10.9% and a viability, T/C (second compound 0.00949 µM, first compound 0.0316 µM) of 10.3%. For the same molecule, the viability, T/C (second compound 0.00949 µM, first compound 0.1 µM) was 11.9%, the viability, T/C (second compound 0.00949 µM, first compound 0.316 µM) was 10.6% and the viability, T/C (second compound 0.00949 µM, first compound 1 µM) was 8.22%. For the same molecule, the viability, T/C (second compound 0.03 µM, first compound 0.00316 µM) was 5.68%, the viability, T/C (second compound 0.03 µM, first compound 0.01 µM) was 6.29% and the viability, T/C (second compound 0.03 µM, first compound 0.0316 µM) was 3.09%. It also gave a viability, T/C (second compound 0.03 µM, first compound 0.1 µM) of 5.81%, a viability, T/C (second compound 0.03 µM, first compound 0.316 µM) of 4.33% and a viability, T/C (second compound 0.03 µM, first compound 1 µM) of 3.19%. It also gave a viability, T/C (second compound 0.0949 µM, first compound 0.00316 µM) of 3.17%, a viability, T/C (second compound 0.0949 µM, first compound 0.01 µM) of 3.79% and a viability, T/C (second compound 0.0949 µM, first compound 0.0316 µM) of 3.86%. For the same molecule, the viability, T/C (second compound 0.0949 µM, first compound 0.1 µM) was 3.09%, the viability, T/C (second compound 0.0949 µM, first compound 0.316 µM) was 2.31% and the viability, T/C (second compound 0.0949 µM, first compound 1 µM) was 1.64%. It also gave a viability, T/C (second compound 0.3 µM, first compound 0.00316 µM) of 2.92%, a viability, T/C (second compound 0.3 µM, first compound 0.01 µM) of 3.03% and a viability, T/C (second compound 0.3 µM, first compound 0.0316 µM) of 2.27%. It also gave a viability, T/C (second compound 0.3 µM, first compound 0.1 µM) of 1.73%, a viability, T/C (second compound 0.3 µM, first compound 0.316 µM) of 1.63% and a viability, T/C (second compound 0.3 µM, first compound 1 µM) of 1.66%.

Reference: PubChem BioAssay AID2060893 (Molecular Pharmacology Branch, DTP, NCI, 2025)
